Results on one compound are retold here after ChEMBL document CHEMBL1143853, “Daptomycin nonsusceptibility in Staphylococcus aureus with reduced vancomycin susceptibility is independent of alterations in MprF” (2007).

The structures appear in SMILES notation. Values after ≈ are worked out from the molar mass of the structure shown.

Assay [1] has as its system Staphylococcus aureus. The experiment in a line: Antimicrobial activity against methicillin-resistant Staphylococcus aureus A6300 by agar dilution method. It is filed as functional. In general terms: In agar dilution the substance is mixed into plates at graded concentrations.
The subject of assay [2] is Staphylococcus aureus. Put plainly: Antimicrobial activity against methicillin-resistant Staphylococcus aureus A6226 by agar dilution method. It is filed as functional.
The subject of assay [3] is Staphylococcus aureus. Put plainly: Antimicrobial activity against methicillin-resistant Staphylococcus aureus A8799 with mprF S337L mutation by agar dilution method. It is filed as functional.
Assay [4] relates to Staphylococcus aureus. The experiment in a line: Antimicrobial activity against methicillin-resistant Staphylococcus aureus A6298 by agar dilution method. It is filed as functional.
The subject of assay [5] is Staphylococcus aureus. The experiment in a line: Antimicrobial activity against methicillin-resistant Staphylococcus aureus A8094 by agar dilution method. It is filed as functional.
For assay [6], the system named is Staphylococcus aureus. The experiment in a line: Antimicrobial activity against methicillin-resistant Staphylococcus aureus A8796 by agar dilution method.
In assay [7] the test system is Staphylococcus aureus. Put plainly: Antimicrobial activity against methicillin-resistant Staphylococcus aureus A6224 by agar dilution method.
Assay [8] has as its system Staphylococcus aureus. Put plainly: Antimicrobial activity against methicillin-resistant Staphylococcus aureus A8090 by agar dilution method.

In the case of `CCCCCCCCCC(=O)N[C@@H](Cc1c[nH]c2ccccc12)C(=O)N[C@H](CC(N)=O)C(=O)N[C@@H](CC(=O)O)C(=O)N[C@@H]1C(=O)NCC(=O)N[C@@H](CCCN)C(=O)N[C@@H](CC(=O)O)C(=O)N[C@H](C)C(=O)N[C@@H](CC(=O)O)C(=O)NCC(=O)N[C@H](CO)C(=O)N[C@@H]([C@H](C)CC(=O)O)C(=O)N[C@@H](CC(=O)c2ccccc2N)C(=O)O[C@@H]1C`, the MIC with Staphylococcus aureus [1] came out at 1 µg/mL (≈ 0.617 µM); in the assay on Staphylococcus aureus [2], 2 µg/mL (≈ 1.23 µM); in the assay with Staphylococcus aureus [3] it was 2 µg/mL (≈ 1.23 µM); with Staphylococcus aureus [4], 2 µg/mL (≈ 1.23 µM); in the assay on Staphylococcus aureus [5] it was 2 µg/mL (≈ 1.23 µM); with Staphylococcus aureus [6] it was 0.5 µg/mL (≈ 0.309 µM). Moreover, the MIC against Staphylococcus aureus [7] and against Staphylococcus aureus [8] was 0.5 µg/mL (≈ 0.309 µM) in each case.

In general, MIC refers to the least concentration at which growth counts as inhibited. Lower therefore signals a more susceptible organism.
